Structures are written as SMILES.

Here are results for one compound from PMC3528340 (Journal of the American Chemical Society, 2012).

In assay [1] the target is T1, EcLTA (E. coli L-Thr aldolase, EC 4.1.24) (Escherichia coli, UniProt P75823).
T1 sequence (P75823 1-333): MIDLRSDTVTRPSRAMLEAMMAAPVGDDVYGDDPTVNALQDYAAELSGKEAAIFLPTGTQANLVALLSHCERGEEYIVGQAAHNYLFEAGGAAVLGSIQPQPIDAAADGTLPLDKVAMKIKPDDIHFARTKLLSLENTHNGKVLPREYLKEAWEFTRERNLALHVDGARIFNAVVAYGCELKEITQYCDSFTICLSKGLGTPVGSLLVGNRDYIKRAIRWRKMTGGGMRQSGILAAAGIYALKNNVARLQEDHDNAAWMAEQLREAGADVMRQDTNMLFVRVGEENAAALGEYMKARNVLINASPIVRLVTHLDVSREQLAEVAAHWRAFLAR
Kind of assay: aldehyde dehydrogenase-coupled retro-aldol assay, A340. The class given is biochemical. The following applies: L-Thr only, no aldehyde acceptor.

In a further assay the target is T2, EcGlyA (E. coli SHMT) (Escherichia coli, UniProt P0A825).
T2 sequence (P0A825 1-417): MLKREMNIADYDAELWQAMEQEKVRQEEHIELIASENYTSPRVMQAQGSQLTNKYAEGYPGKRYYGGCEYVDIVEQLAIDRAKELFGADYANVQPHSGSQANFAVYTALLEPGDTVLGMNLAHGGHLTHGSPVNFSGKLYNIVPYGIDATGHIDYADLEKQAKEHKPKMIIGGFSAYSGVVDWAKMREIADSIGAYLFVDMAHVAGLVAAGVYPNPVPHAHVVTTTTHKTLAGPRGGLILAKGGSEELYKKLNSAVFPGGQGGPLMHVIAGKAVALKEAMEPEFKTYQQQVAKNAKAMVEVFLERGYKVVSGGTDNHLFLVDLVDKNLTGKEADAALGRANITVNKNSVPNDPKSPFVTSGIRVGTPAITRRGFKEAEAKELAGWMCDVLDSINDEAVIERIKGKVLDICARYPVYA
Described as above. The class given is biochemical. The settings on record: L-Thr only, no aldehyde acceptor.

Consider `C[C@@H](O)[C@H](N)C(=O)O` [L-Thr], for which the specific activity result in assay [1] is “EcLTA, and EcGlyA were shown to catalyze a retro-aldol-type reaction in the presence of only L-Thr”; at EcGlyA (E. coli SHMT), “EcLTA, and EcGlyA were shown to catalyze a retro-aldol-type reaction in the presence of only L-Thr”.
